Reference: ChEMBL document CHEMBL1201862, “PubChem BioAssay data set” (2004)
Active and inactive are the calls of the source.

Assays:
Cytochrome P450 2D6 = Cytochrome P450 2D6 (Homo sapiens, UniProt P10635); test: qHTS Assay for Inhibitors and Substrates of Cytochrome P450 2D6. [Related pubchem assays: 410 ]; format: ADME; settings: read-out: Potency
BJ [1] = test: BJ-TERT fibroblast viability loss – cell-based, RAS-independent, luminescence, dose response (AID 1933); format: functional; settings: Homo sapiens
[2] = biological target: T1, Eukaryotic translation initiation factor 2-alpha kinase 3 (Homo sapiens, UniProt Q9NZJ5); test: Dose response cell-based high-throughput screening assay to measure PERK inhibition. [Related pubchem assays: 1416 ]; format: functional
T1 sequence (Q9NZJ5 whole entry): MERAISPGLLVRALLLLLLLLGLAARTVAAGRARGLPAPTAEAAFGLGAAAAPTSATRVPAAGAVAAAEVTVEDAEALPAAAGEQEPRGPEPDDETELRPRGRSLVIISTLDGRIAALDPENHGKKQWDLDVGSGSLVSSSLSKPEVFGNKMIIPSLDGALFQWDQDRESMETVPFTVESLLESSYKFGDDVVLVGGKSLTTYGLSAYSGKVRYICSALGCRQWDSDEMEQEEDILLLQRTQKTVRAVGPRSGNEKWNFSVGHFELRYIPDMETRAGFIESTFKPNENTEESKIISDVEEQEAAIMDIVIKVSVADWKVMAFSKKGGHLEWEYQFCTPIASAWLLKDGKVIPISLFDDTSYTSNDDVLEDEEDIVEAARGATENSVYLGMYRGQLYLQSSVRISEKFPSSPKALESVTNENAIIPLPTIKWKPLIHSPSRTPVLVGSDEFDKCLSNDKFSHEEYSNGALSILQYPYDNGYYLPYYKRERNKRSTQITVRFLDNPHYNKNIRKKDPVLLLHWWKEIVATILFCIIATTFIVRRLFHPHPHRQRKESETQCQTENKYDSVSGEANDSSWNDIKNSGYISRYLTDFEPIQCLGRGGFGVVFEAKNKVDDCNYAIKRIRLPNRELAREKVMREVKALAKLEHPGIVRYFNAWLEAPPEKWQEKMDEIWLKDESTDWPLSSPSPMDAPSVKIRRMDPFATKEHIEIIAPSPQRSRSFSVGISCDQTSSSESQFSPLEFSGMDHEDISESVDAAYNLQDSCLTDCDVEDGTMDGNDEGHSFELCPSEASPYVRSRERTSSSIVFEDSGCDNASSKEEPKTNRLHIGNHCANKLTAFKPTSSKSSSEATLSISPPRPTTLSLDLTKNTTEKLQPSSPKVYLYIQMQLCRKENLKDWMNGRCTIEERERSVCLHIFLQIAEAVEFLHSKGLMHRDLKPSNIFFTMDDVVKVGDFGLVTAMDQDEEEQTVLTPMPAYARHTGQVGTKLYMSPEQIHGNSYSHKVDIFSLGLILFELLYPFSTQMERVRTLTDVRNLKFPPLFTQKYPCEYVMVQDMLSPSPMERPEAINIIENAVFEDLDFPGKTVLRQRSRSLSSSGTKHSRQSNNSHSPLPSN

BJ [3] = test: cells; format: functional, cell-based; settings: Homo sapiens
[4] = biological target: T1, Eukaryotic translation initiation factor 2-alpha kinase 3; test: Counterscreen assay for PERK inhibitors: Dose response cell-based high throughput screening assay to measure inhibition of PERK at 6 hours. [Related pubchem assays: 1522, 1416 ]; format: functional
BJ [5] = test: BJ-TERT-LT-ST fibroblast viability loss – cell-based, RAS-independent, luminescence, dose response (AID 1935); format: functional; settings: Homo sapiens;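 also: BJ fibroblasts immortalized with TERT plus LT and ST oncogenes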
[6] = DRD fibroblast viability loss – cell-based, non-viral oncogenic, luminescence, dose response (AID 1934); format: functional; settings: Homo sapiens
[7] = biological target: Cyclin-dependent kinase 5/CDK5 activator 1 (Homo sapiens, UniProt Q00535); test: blockade of human CDK5 activity – biochemical, cherry-picked samples, set 2, dose response (AID 504545)
Chain of Cyclin-dependent kinase 5/CDK5 activator 1 (Q00535 whole entry): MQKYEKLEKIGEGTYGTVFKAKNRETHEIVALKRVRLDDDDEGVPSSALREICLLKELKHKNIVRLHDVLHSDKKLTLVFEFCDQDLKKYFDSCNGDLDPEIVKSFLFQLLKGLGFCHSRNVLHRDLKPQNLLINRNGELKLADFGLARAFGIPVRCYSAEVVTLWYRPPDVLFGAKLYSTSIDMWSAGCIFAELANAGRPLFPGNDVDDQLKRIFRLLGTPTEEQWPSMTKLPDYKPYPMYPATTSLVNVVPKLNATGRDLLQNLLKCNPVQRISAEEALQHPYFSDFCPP
Chain of Cyclin-dependent kinase 5/CDK5 activator 1 (Q15078 whole entry, further chain): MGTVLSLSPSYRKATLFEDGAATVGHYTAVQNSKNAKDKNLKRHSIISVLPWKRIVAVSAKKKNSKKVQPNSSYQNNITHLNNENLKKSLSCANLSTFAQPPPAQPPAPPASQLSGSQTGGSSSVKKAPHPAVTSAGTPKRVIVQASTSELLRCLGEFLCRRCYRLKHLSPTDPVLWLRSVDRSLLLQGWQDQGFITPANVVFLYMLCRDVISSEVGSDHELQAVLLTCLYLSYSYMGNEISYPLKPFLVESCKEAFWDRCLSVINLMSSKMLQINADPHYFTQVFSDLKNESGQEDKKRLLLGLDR

Galanin receptor type 3 = biological target: T2, Galanin receptor type 3 (Homo sapiens, UniProt O60755); test: Fluorescence-based cell-based primary high throughput dose response assay to identify antagonists of the Galanin Receptor 3 (GalR3).; format: functional
T2 sequence (O60755 whole entry): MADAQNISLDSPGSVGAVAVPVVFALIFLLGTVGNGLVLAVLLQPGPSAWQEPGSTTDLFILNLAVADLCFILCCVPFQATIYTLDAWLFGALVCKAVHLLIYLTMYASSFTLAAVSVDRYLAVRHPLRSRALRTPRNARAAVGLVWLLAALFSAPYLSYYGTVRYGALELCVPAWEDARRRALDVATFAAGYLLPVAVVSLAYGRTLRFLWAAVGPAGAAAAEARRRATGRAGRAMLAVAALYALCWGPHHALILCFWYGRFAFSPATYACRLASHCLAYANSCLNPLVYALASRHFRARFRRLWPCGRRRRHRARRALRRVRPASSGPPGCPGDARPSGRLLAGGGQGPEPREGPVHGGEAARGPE

cells = format: functional, cell-based; settings: HEK-CNG
Chaperone protein dnaK = Chaperone protein dnaK (Escherichia coli, UniProt C3TRK2); test: E. coli DnaK binders, calorimetric Kd – biophysical, isothermal titration calorimetry, beta-domain, full-length DnaK, orthogonal assay for DnaK modulator project, SAR follow-up (AID 1495)
Chain of Chaperone protein dnaK (C3TRK2 whole entry): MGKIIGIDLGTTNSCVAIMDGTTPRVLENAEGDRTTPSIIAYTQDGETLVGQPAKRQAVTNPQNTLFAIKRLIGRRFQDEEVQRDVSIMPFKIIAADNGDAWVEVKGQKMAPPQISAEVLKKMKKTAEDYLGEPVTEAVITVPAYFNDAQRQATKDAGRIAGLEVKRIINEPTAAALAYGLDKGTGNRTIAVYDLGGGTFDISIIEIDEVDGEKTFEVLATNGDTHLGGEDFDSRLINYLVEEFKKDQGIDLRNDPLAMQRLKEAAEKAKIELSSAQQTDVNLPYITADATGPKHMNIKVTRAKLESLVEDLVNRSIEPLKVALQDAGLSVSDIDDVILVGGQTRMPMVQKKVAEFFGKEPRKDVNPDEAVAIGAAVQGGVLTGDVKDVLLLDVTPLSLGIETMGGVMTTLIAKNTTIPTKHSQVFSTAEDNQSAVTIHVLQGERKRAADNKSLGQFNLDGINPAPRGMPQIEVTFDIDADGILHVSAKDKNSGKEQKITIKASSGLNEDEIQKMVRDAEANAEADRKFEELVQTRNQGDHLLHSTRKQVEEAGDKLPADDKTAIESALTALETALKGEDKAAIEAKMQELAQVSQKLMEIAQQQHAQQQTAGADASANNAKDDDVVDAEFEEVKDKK

[8] = biological target: T3, Alkaline phosphatase, tissue-nonspecific isozyme (Homo sapiens, UniProt P05186)
T3 sequence (P05186 whole entry): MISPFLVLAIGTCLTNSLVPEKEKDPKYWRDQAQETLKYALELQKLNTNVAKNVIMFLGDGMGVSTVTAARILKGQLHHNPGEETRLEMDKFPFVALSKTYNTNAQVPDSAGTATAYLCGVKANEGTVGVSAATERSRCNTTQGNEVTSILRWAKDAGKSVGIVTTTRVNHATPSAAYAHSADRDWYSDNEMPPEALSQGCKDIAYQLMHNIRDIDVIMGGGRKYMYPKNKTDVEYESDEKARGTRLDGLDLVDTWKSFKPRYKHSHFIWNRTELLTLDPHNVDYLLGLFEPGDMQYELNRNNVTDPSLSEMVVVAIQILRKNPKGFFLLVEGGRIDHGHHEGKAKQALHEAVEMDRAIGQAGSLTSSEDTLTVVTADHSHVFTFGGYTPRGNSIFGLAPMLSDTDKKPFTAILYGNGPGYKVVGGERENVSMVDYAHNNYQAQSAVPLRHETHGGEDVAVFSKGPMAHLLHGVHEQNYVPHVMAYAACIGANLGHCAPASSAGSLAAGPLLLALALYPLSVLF

[9] = HPDE-C7 pancreatic duct cell viability loss – fluorescence, HTS (AID 430); format: functional, cell-based; settings: Homo sapiens
[10] = viability loss of HPDE-C7K cells – cell-based, fluorescence, HTS, primary screen (AID 431); format: functional; settings: Homo sapiens
[11] = Luminescence Cell-Based Dose Retest to Confirm Inhibitors of Cancer Stem Cells. [Related pubchem assays (depositor defined):AID2717, AID2721]; format: functional; settings: Homo sapiens
[12] = biological target: T4, Methionyl-tRNA synthetase, putative (Trypanosoma brucei brucei, UniProt Q38C91); format: functional, Trypanosoma brucei brucei strain 927/4 GUTat10.1
T4 sequence (Q38C91 whole entry): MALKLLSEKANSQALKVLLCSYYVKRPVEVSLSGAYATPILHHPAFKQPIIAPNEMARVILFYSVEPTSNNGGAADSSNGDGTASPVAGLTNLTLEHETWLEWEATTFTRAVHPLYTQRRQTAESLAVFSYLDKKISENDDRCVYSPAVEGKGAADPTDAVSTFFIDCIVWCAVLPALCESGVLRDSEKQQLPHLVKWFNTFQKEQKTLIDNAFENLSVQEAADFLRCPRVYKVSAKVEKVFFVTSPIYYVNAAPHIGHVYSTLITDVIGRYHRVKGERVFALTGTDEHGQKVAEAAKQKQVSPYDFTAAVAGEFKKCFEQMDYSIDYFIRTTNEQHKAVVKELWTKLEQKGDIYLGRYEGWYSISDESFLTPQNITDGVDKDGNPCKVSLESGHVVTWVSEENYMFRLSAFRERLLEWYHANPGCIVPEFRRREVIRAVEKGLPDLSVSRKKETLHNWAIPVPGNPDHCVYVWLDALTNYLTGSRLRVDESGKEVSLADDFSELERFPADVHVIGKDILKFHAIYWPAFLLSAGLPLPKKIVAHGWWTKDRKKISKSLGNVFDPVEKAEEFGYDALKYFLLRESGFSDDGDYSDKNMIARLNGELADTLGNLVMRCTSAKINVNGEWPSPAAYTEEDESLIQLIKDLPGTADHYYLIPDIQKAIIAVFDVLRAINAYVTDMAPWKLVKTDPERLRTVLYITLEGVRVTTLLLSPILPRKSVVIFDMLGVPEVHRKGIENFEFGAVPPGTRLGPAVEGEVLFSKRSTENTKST

[13] = Counterscreen for inhibitors of Trypanosoma brucei methionyl tRNA synthetase (MetRS): Luminescence-based cell-based high throughput dose response assay to identify compounds that are cytotoxic to Jurkat human T lymphocyte cells.; format: functional; settings: jurkat
[14] = biological target: T4, Methionyl-tRNA synthetase, putative; format: functional, Trypanosoma brucei brucei strain 927/4 GUTat10.1; remark: listed apart in the source

Chain of Cytochrome P450 2D6 (P10635 whole entry): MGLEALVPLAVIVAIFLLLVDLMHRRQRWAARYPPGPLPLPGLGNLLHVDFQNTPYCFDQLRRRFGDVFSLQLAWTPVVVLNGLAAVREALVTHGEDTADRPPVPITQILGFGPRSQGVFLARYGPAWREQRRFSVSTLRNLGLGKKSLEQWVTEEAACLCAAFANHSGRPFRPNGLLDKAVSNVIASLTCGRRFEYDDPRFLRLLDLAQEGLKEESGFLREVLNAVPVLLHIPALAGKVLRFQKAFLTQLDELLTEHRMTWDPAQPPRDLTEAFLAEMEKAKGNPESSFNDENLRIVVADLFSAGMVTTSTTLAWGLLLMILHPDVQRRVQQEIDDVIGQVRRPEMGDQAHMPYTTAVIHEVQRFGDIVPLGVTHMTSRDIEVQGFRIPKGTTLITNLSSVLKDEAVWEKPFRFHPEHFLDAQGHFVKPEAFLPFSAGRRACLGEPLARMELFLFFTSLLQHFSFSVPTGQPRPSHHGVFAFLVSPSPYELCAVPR

SMILES: COc1cc(C(=O)O[C@@H]2CC(C)=CC[C@@]3(C)CC[C@](O)(C(C)C)[C@H]23)ccc1O
- AC50 (Cytochrome P450 2D6): 31.6 µM (inconclusive)

SMILES: NC(=O)c1cn(C2OC(CO)C(O)C2O)c2ncnc(N)c12 (stereo not drawn)
- EC50 (BJ [1]): 0.874 µM (active)
- EC50 [2]: > 55.7 µM (not active)
- EC50 (BJ [3]): 1.27 µM (inconclusive)
- EC50 [4]: > 55.7 µM (not active)
- EC50 (BJ [5]): 1.19 µM (inconclusive)
- EC50 [6]: 1.09 µM (active)
- AC50 [7]: 14.6 µM (active)
- IC50 (Galanin receptor type 3): 1.31 µM (active)
- EC50 (cells): > 29.9 µM (inactive)

SMILES: O=C(NCc1c(Cl)cccc1Cl)c1cccs1
- Kd (Chaperone protein dnaK): 1.5 µM (active)

SMILES: Clc1ccc(COC(Cn2ccnc2)c2ccc(Cl)cc2Cl)c(Cl)c1 (stereo not drawn) [MICONAZOLE NITRATE]
- EC50 [8]: 70.6 µM (not active)
- EC50 [9]: 8.19 µM (active)
- EC50 [10]: 7.45 µM (active)
- AC50 [11]: 6.36 µM (active)
- IC50 [12]: 11 µM (inactive)
- IC50 [13]: 28.1 µM (inactive)
- IC50 [14]: 13.2 µM (inactive)
